Earlier results as cited in patent US20060140985A1, “Lansoprazole formulations and related processes and methods” (priority 2003, published 2006).
Where two headings read alike, the source gives them in different places.

Columns and labels:
[1] = not given; remark: listed apart in the source
[2] = test system: gastric acid secretion; settings: in vivo
[3] = not given; remark: listed apart in the source

solubility (acetonitrile): slightly soluble
solubility (dichloromethane): slightly soluble
solubility (dimethylformamide): freely soluble
solubility (ethanol): sparingly soluble
solubility (ether): very slightly soluble
solubility (ethyl acetate): slightly soluble
solubility (hexane): practically insoluble
solubility (methanol): soluble
solubility (water): practically insoluble
metabolism ([3]; liver): extensively metabolized in the liver
plasma elimination half-life ([3]; plasma): less than two hours
SMILES: Cc1c(OCC(F)(F)F)ccnc1C[S+]([O-])c1nc2ccccc2[nH]1 (centres unmarked) [Lansoprazole, 2-[[[3-methyl-4 (2,2,2-trifluoroethoxy)-2-pyridyl]methyl]sulfinyl]benzimidazole]
degradation in aqueous solution ([1]; aqueous solution, pH dependence): degrades in aqueous solution, with the rate of degradation increasing with decreasing pH
stability when exposed to light ([1]; light): stable when exposed to light for up to two months
duration of acid inhibitory effect [2]: more than twenty-four hours
